Here are results for 4 cell lines from the supplement of paper PMC10307832.

What all share (assay): relative viability (nuclei count vs DMSO), 5 days (fraction); higher = more cells survive
Compound in the test “XMD8-85 + Lapatinib”: CN1CCN(CC1)C2=CC(=C(C=C2)NC3=NC=C4C(=N3)N(C5=CC=CC=C5C(=O)N4C)C)OC [XMD8-85] + CS(=O)(=O)CCNCc1ccc(-c2ccc3ncnc(Nc4ccc(OCc5cccc(F)c5)c(Cl)c4)c3c2)o1 [Lapatinib] (partner 2 µM)
The method, boiled down:
(§1)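 Five library-drug doses in √10 steps were combined with a fixed anchor-drug dose, or a single drug was given alone, by pin tool to lung cancer cell lines in 1536-well plates the day after seeding. Nuclei were stained and counted after 5 days. Relative viability is the nuclei count in treated wells over that in vehicle wells, taken as the median of duplicate plates.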

Compound in the test “XMD8-85 + Dasatinib”: CN1CCN(CC1)C2=CC(=C(C=C2)NC3=NC=C4C(=N3)N(C5=CC=CC=C5C(=O)N4C)C)OC [XMD8-85] + Cc1nc(Nc2ncc(C(=O)Nc3c(C)cccc3Cl)s2)cc(N2CCN(CCO)CC2)n1 [Dasatinib] (partner 0.075 µM)
The method, boiled down:
as §1

Compound in the test “4EGI-1 + Crizotinib”: O=C(O)C(Cc1ccccc1[N+](=O)[O-])=NNc1nc(-c2ccc(Cl)c(Cl)c2)cs1 (mixture of isomers) [4EGI-1] + C[C@@H](Oc1cc(-c2cnn(C3CCNCC3)c2)cnc1N)c1c(Cl)ccc(F)c1Cl [Crizotinib] (partner 1 µM)
The method, boiled down: as §1

Compound in the test “4EGI-1 + Olaparib”: O=C(O)C(Cc1ccccc1[N+](=O)[O-])=NNc1nc(-c2ccc(Cl)c(Cl)c2)cs1 (mixture of isomers) [4EGI-1] + O=C(c1cc(Cc2n[nH]c(=O)c3ccccc23)ccc1F)N1CCN(C(=O)C2CC2)CC1 [Olaparib] (partner 8 µM)
The gist of the method:
as §1

Regarding A-427, the relative viability in the test with XMD8-85 + Lapatinib (first compound 0.08 µM) stood at 1.05; with XMD8-85 + Lapatinib (first compound 0.253 µM), 0.994; in the test with XMD8-85 + Lapatinib (first compound 0.8 µM) it was 1.09; with XMD8-85 + Lapatinib (first compound 2.53 µM) it was 1.1; in the test with XMD8-85 + Lapatinib (first compound 8 µM), 0.937; with XMD8-85 + Dasatinib (first compound 0.08 µM), 0.734. Further, the relative viability in the test with XMD8-85 + Dasatinib (first compound 0.253 µM) is 0.717; with XMD8-85 + Dasatinib (first compound 0.8 µM), 0.749; with XMD8-85 + Dasatinib (first compound 2.53 µM), 0.797; with XMD8-85 + Dasatinib (first compound 8 µM) it was 0.618; with 4EGI-1 + Crizotinib (first compound 0.5 µM) it was 1.02; with 4EGI-1 + Crizotinib (first compound 1.581 µM), 0.728. Also, the relative viability with 4EGI-1 + Crizotinib (first compound 5 µM) stood at 0.791; in the test with 4EGI-1 + Crizotinib (first compound 15.81 µM) it was 0.822; with 4EGI-1 + Crizotinib (first compound 50 µM), 0.424; in the test with 4EGI-1 + Olaparib (first compound 0.5 µM), 0.777; with 4EGI-1 + Olaparib (first compound 5 µM), 0.766; in the test with 4EGI-1 + Olaparib (first compound 15.81 µM), 0.643. In the test with 4EGI-1 + Olaparib (first compound 50 µM), the relative viability turned out to be 0.276.

As to NCI-H358, the relative viability turned out to be 0.438 with XMD8-85 + Lapatinib (first compound 0.08 µM); 0.52 in the test with XMD8-85 + Lapatinib (first compound 0.253 µM); 0.455 with XMD8-85 + Lapatinib (first compound 0.8 µM); 0.486 with XMD8-85 + Lapatinib (first compound 2.53 µM); 0.405 in the test with XMD8-85 + Lapatinib (first compound 8 µM); 0.167 with XMD8-85 + Dasatinib (first compound 0.08 µM). The relative viability in the test with XMD8-85 + Dasatinib (first compound 0.253 µM) worked out at 0.173; with XMD8-85 + Dasatinib (first compound 0.8 µM) it was 0.169; in the test with XMD8-85 + Dasatinib (first compound 2.53 µM), 0.207; with XMD8-85 + Dasatinib (first compound 8 µM), 0.18; with 4EGI-1 + Crizotinib (first compound 0.5 µM), 0.566; with 4EGI-1 + Crizotinib (first compound 1.581 µM) it was 0.413. Moreover, the relative viability was 0.645 in the test with 4EGI-1 + Crizotinib (first compound 5 µM); 0.378 with 4EGI-1 + Crizotinib (first compound 15.81 µM); 0.247 with 4EGI-1 + Crizotinib (first compound 50 µM); 0.599 with 4EGI-1 + Olaparib (first compound 0.5 µM); 0.58 in the test with 4EGI-1 + Olaparib (first compound 1.581 µM); 0.531 with 4EGI-1 + Olaparib (first compound 5 µM). The relative viability with 4EGI-1 + Olaparib (first compound 15.81 µM) is 0.336; in the test with 4EGI-1 + Olaparib (first compound 50 µM) it was 0.118.

As to NCI-H23, the relative viability was 0.949 with XMD8-85 + Lapatinib (first compound 0.08 µM); 1.05 with XMD8-85 + Lapatinib (first compound 0.253 µM); 1.09 in the test with XMD8-85 + Lapatinib (first compound 0.8 µM); 1.08 with XMD8-85 + Lapatinib (first compound 2.53 µM); 0.969 with XMD8-85 + Lapatinib (first compound 8 µM); 0.719 with XMD8-85 + Dasatinib (first compound 0.08 µM). Moreover, the relative viability turned out to be 0.853 with XMD8-85 + Dasatinib (first compound 0.253 µM); 0.885 with XMD8-85 + Dasatinib (first compound 0.8 µM); 0.751 in the test with XMD8-85 + Dasatinib (first compound 2.53 µM); 0.528 in the test with XMD8-85 + Dasatinib (first compound 8 µM); 0.592 with 4EGI-1 + Crizotinib (first compound 0.5 µM); 0.654 in the test with 4EGI-1 + Crizotinib (first compound 5 µM). In addition, the relative viability with 4EGI-1 + Crizotinib (first compound 15.81 µM) is 0.501; with 4EGI-1 + Crizotinib (first compound 50 µM), 0.481; with 4EGI-1 + Olaparib (first compound 0.5 µM), 0.335; in the test with 4EGI-1 + Olaparib (first compound 5 µM), 0.278; in the test with 4EGI-1 + Olaparib (first compound 15.81 µM), 0.245; in the test with 4EGI-1 + Olaparib (first compound 50 µM), 0.161.

With LXF-289, the relative viability with XMD8-85 + Lapatinib (first compound 0.08 µM) was determined as 0.887; in the test with XMD8-85 + Lapatinib (first compound 0.253 µM), 0.855; in the test with XMD8-85 + Lapatinib (first compound 0.8 µM), 0.892; with XMD8-85 + Lapatinib (first compound 2.53 µM), 0.903; with XMD8-85 + Lapatinib (first compound 8 µM), 0.818; with XMD8-85 + Dasatinib (first compound 0.08 µM) it was 0.214. For the same cell line, the relative viability in the test with XMD8-85 + Dasatinib (first compound 0.253 µM) worked out at 0.23; with XMD8-85 + Dasatinib (first compound 0.8 µM) it was 0.208; with XMD8-85 + Dasatinib (first compound 2.53 µM) it was 0.243; with XMD8-85 + Dasatinib (first compound 8 µM), 0.2; with 4EGI-1 + Crizotinib (first compound 0.5 µM), 0.889; with 4EGI-1 + Crizotinib (first compound 1.581 µM), 0.803. Moreover, the relative viability with 4EGI-1 + Crizotinib (first compound 5 µM) turned out to be 0.817; with 4EGI-1 + Crizotinib (first compound 15.81 µM), 0.672; in the test with 4EGI-1 + Crizotinib (first compound 50 µM), 0.332; in the test with 4EGI-1 + Olaparib (first compound 0.5 µM), 1.09; with 4EGI-1 + Olaparib (first compound 1.581 µM), 0.975; with 4EGI-1 + Olaparib (first compound 5 µM), 1.02. Further, the relative viability with 4EGI-1 + Olaparib (first compound 15.81 µM) came to 1.05; in the test with 4EGI-1 + Olaparib (first compound 50 µM), 0.513.
